Patent publication US8075922B2, “Method of co-infusing a deoxygenated hemoglobin containing blood substitute and inorganic nitrite” (Montana State University-Bozeman, priority 2002, dated 2011)

Tested on: human patient
Conditions: sodium nitrite in phosphate buffered saline infused at 1 micromole per minute, begun before red blood cell transfusion

O=NO [sodium nitrite]
adverse effect of red blood cell transfusion: without adverse effect
